Measurements reported in PubChem BioAssay AID2060623 (Molecular Pharmacology Branch, DTP, NCI, 2025).
pIC50: −log10 of the molar value.

Tested on: 227483-062-R1-J1-PDC complex spheroids with HUVEC/MSC, viability
Assay: Anticancer human tumor 227483-062-R1-J1-PDC patient-derived pancreatic carcinoma cell line growth inhibition [CLK]
Conditions: for pIC50: curve of first compound; for viability, T/C: stronger effect = lower value; active = viability on the fitted dose curve at most 10% of control; inactive = the rest
In short: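 Patient-derived tumor cells grown as complex spheroids with HUVEC endothelial cells and mesenchymal stem cells, treated with drug combinations. Concentrations descend in half-log steps from near clinical Cmax, or from 10 microM if Cmax unknown.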

[1] = second compound 0.0316 µM, first compound 0.0316 µM
[2] = second compound 0.0316 µM, first compound 0.1 µM
[3] = second compound 0.0316 µM, first compound 0.316 µM
[4] = second compound 0.0316 µM, first compound 1 µM
[5] = second compound 0.1 µM, first compound 0.0316 µM
[6] = second compound 0.1 µM, first compound 0.1 µM
[7] = second compound 0.1 µM, first compound 0.316 µM
[8] = second compound 0.1 µM, first compound 1 µM
[9] = second compound 0.316 µM, first compound 0.0316 µM
[10] = second compound 0.316 µM, first compound 0.1 µM
[11] = second compound 0.316 µM, first compound 0.316 µM
[12] = second compound 0.316 µM, first compound 1 µM
[13] = second compound 1 µM, first compound 0.0316 µM
[14] = second compound 1 µM, first compound 0.1 µM
[15] = second compound 1 µM, first compound 0.316 µM
[16] = second compound 1 µM, first compound 1 µM
[17] = second compound 3.16 µM, first compound 0.0316 µM
[18] = second compound 3.16 µM, first compound 0.1 µM
[19] = second compound 3.16 µM, first compound 0.316 µM
[20] = second compound 3.16 µM, first compound 1 µM
[21] = second compound 10 µM, first compound 0.0316 µM
[22] = second compound 10 µM, first compound 0.1 µM
[23] = second compound 10 µM, first compound 0.316 µM
[24] = second compound 10 µM, first compound 1 µM
[25] = second compound 0.0316 µM, first compound 0.00316 µM
[26] = second compound 0.0316 µM, first compound 0.01 µM
[27] = second compound 0.1 µM, first compound 0.00316 µM
[28] = second compound 0.1 µM, first compound 0.01 µM
[29] = second compound 0.316 µM, first compound 0.00316 µM
[30] = second compound 0.316 µM, first compound 0.01 µM
[31] = second compound 1 µM, first compound 0.00316 µM
[32] = second compound 1 µM, first compound 0.01 µM
[33] = second compound 3.16 µM, first compound 0.00316 µM
[34] = second compound 3.16 µM, first compound 0.01 µM
[35] = second compound 10 µM, first compound 0.00316 µM
[36] = second compound 10 µM, first compound 0.01 µM
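Note: spheroids exposed to compounds for seven days before readout.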
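Throughout, for viability, T/C: percent of DMSO vehicle control luminescence as 100% viability.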

CC(Nc1ccc2c(c1)OCCn1cc(N3C(=O)OCC3C(F)F)nc1-2)C(N)=O (stereo unspecified) + CNC(=O)c1ccc(Nc2nc(OC3CCCC3)c3c(-c4ccc5nc(C)oc5c4)c[nH]c3n2)c(OC)c1
> 7.50: pIC50 (second compound 3.16 µM) | pIC50 (second compound 10 µM)
< 5.00: pIC50 (second compound 0.0316 µM) | pIC50 (second compound 0.1 µM) | pIC50 (second compound 0.316 µM)
7.13: pIC50 (second compound 1 µM)
inactive: viability, T/C [1] 105% | viability, T/C [2] 82.3% | viability, T/C [3] 83.9% | viability, T/C [4] 85.5% | viability, T/C (second compound 0.0316 µM, first compound 3.16 µM) 65.4% | viability, T/C (second compound 0.0316 µM, first compound 10 µM) 67.3% | viability, T/C [5] 88% | viability, T/C [6] 78.4% | viability, T/C [7] 66.1% | viability, T/C [8] 70.3% | viability, T/C (second compound 0.1 µM, first compound 3.16 µM) 55.7% | viability, T/C (second compound 0.1 µM, first compound 10 µM) 58.2% | viability, T/C [9] 92.5% | viability, T/C [10] 64.3% | viability, T/C [11] 65.5% | viability, T/C [12] 52.4% | viability, T/C (second compound 0.316 µM, first compound 3.16 µM) 56.9% | viability, T/C (second compound 0.316 µM, first compound 10 µM) 49.7% | viability, T/C [13] 60.6% | viability, T/C [14] 45.1% | viability, T/C [15] 46.9% | viability, T/C [16] 47.7% | viability, T/C (second compound 1 µM, first compound 3.16 µM) 39.7% | viability, T/C (second compound 1 µM, first compound 10 µM) 41.9% | viability, T/C [17] 45% | viability, T/C [18] 49.8% | viability, T/C [19] 32% | viability, T/C [20] 33.4% | viability, T/C (second compound 3.16 µM, first compound 3.16 µM) 35.4% | viability, T/C (second compound 3.16 µM, first compound 10 µM) 25.9% | viability, T/C [21] 38.6% | viability, T/C [22] 46.2% | viability, T/C [23] 37.7% | viability, T/C [24] 27.8% | viability, T/C (second compound 10 µM, first compound 3.16 µM) 32.9% | viability, T/C (second compound 10 µM, first compound 10 µM) 24.9%

CCN1CCN(Cc2ccc(Nc3ncc(F)c(-c4cc(F)c5nc(C)n(C(C)C)c5c4)n3)nc2)CC1 + CNC(=O)c1ccc(Nc2nc(OC3CCCC3)c3c(-c4ccc5nc(C)oc5c4)c[nH]c3n2)c(OC)c1
< 6.00: pIC50 (second compound 0.0316 µM) | pIC50 (second compound 0.1 µM) | pIC50 (second compound 0.316 µM) | pIC50 (second compound 1 µM) | pIC50 (second compound 10 µM)
6.24: pIC50 (second compound 3.16 µM)
inactive: viability, T/C [25] 103% | viability, T/C [26] 89.3% | viability, T/C [1] 86.9% | viability, T/C [2] 82.1% | viability, T/C [3] 79.3% | viability, T/C [4] 81.8% | viability, T/C [27] 103% | viability, T/C [28] 115% | viability, T/C [5] 95.3% | viability, T/C [6] 103% | viability, T/C [7] 76.9% | viability, T/C [8] 79% | viability, T/C [29] 86.3% | viability, T/C [30] 94.2% | viability, T/C [9] 88.8% | viability, T/C [10] 74% | viability, T/C [11] 70.7% | viability, T/C [12] 67.9% | viability, T/C [31] 75.4% | viability, T/C [32] 72.4% | viability, T/C [13] 64.4% | viability, T/C [14] 75.1% | viability, T/C [15] 60.6% | viability, T/C [16] 53.1% | viability, T/C [33] 65% | viability, T/C [34] 64.7% | viability, T/C [17] 61.7% | viability, T/C [18] 57.4% | viability, T/C [19] 60.8% | viability, T/C [20] 41.4% | viability, T/C [35] 41.9% | viability, T/C [36] 56.5% | viability, T/C [21] 60.4% | viability, T/C [22] 74.6% | viability, T/C [23] 65.2% | viability, T/C [24] 37.1%

COc1c(OCCCN2CCOCC2)ccc2c3n(c(=NC(=O)c4cnc(N)nc4)nc12)CCN3 + CNC(=O)c1ccc(Nc2nc(OC3CCCC3)c3c(-c4ccc5nc(C)oc5c4)c[nH]c3n2)c(OC)c1
7.09: pIC50 (second compound 0.1 µM)
inactive: viability, T/C [25] 94.9% | viability, T/C [26] 93.6% | viability, T/C [1] 79.5% | viability, T/C [2] 69% | viability, T/C [3] 70% | viability, T/C [4] 51.2% | viability, T/C [27] 96% | viability, T/C [28] 89.5% | viability, T/C [5] 56.2% | viability, T/C [6] 58.7% | viability, T/C [7] 44.1% | viability, T/C [8] 41% | viability, T/C [29] 87.4% | viability, T/C [30] 55.1% | viability, T/C [9] 59.8% | viability, T/C [10] 52.2% | viability, T/C [11] 37.9% | viability, T/C [12] 32.2% | viability, T/C [31] 55.9% | viability, T/C [32] 56.7% | viability, T/C [13] 39.9% | viability, T/C [14] 32.2% | viability, T/C [15] 26.3% | viability, T/C [16] 20.6% | viability, T/C [33] 50.3% | viability, T/C [34] 48.3% | viability, T/C [17] 34.9% | viability, T/C [18] 22.3% | viability, T/C [19] 18.4% | viability, T/C [20] 14.8% | viability, T/C [35] 43.1% | viability, T/C [36] 36.9% | viability, T/C [21] 30.3% | viability, T/C [22] 21.2% | viability, T/C [23] 18% | viability, T/C [24] 16.3%
8.37: pIC50 (second compound 3.16 µM)
7.97: pIC50 (second compound 1 µM)
> 8.50: pIC50 (second compound 10 µM)
7.21: pIC50 (second compound 0.316 µM)
< 6.00: pIC50 (second compound 0.0316 µM)
